Data set [1] deals with Salmonella typhimurium TA98. The experiment in a line: Ames assay (dark mutagenicity), strain TA98. The text has this:
(§1) The second property that is important in testing a compound for use in methods of the present invention is mutagenicity. The most widely used mutagen/carcinogen screening assay is the Ames test. This assay is described by D. M. Maron and B. N. Ames in Mutation Research 113: 173 ( 1983) and a specific screen is described in detail in Example 17, below. The Ames test utilizes several unique strains of Salmonella typhimurium that are histidine- dependent for growth and that lack the usual DNA repair enzymes. The frequency of normal mutations that render the bacteria independent of histidine (i.e., the frequency of spontaneous revertants) is low. The test allows one to evaluate the impact of a compound on this revertant frequency.
(§2) In this example the compounds of the present invention are tested for their dark mutagenicity using an Ames assay. The procedures used for the Salmonella mutagenicity test as described in detail by Maron and Ames were followed exactly. Maron, D. M. and B. N. Ames, Mutation Research 113: 173 ( 1983). A brief description for each procedure is given here. The tester strains TA97a, TA98, TA100, TA102, TA1537 and TA1538 were obtained from Dr. Ames. TA97a, TA98, TA1537 and TA1538 are frameshift tester strains. TA100 and TA102 are base-substitution tester strains. Upon receipt each strain was cultured under a variety of conditions to confirm the genotypes specific to the strains.
(§3) The first tests done with the strains were to determine the range of spontaneous reversion for each of the strains. With each mutagenicity experiment the spontaneous reversion of the tester strains to histidine independence was measured and expressed as the number of spontaneous revertants per plate. This served as the background controls.
(§4) For all experiments, the pre-incubation procedure was used. In this procedure one vial of each tester strain was thawed and 20 μL of this culture was added to 6 mL of Oxoid Nutrient Broth #2. This solution was allowed to shake for 10 hours at 37° C. In the pre-incubation procedure, 0.1 mL of this overnight culture was added to each of the required number of sterile test tubes. To half of the tubes 0.5 mL of a 10% S-9 solution containing Aroclor 1254 induced rat liver extract (Molecular Toxicology Inc., Annapolis, Md.), and MgCl2, KCl, glucose-6-phosphate, NADP, and sodium phosphate buffer (Sigma, St. Louis, Mo.) were added. To the other half of the tubes 0.5 mL of 0.2M sodium phospate buffer, pH 7.4, was used in place of the S-9 mixture (the -S9 samples). Finally 0.1 mL of the test solution containing either 0, 0.1, 0.5, 1, 5, 10, 50, 100, 250, or 500 μg/mL of the test compound was added. The 0.7 mL mixture was vortexed and then pre-incubated while shaking for 20 minutes at 37° C. After shaking, 2 mL of molten top agar supplemented with histidine and biotin were added to the 0.7 mL mixture and immediately poured onto a minimal glucose agar plate (volume of base agar was 20 mL). The top agar was allowed 30 minutes to solidify and then the plates were inverted and incubated for 44 hours at 37° C. After incubation the number of revertant colonies on each plate were counted. […] (“n” represents the number of replicates performed for each data point.)
(§5) Maron and Ames (1983) describe the conflicting views with regard to the statisical treatment of data generated from the test.

For data set [2], the system named is Salmonella typhimurium TA100.
For data set [3], the system named is GMP-140 (p-selectin) on platelets. Briefly: Platelet function: GMP-140 expression (flow cytometry, CD62). Type of data set: cell-based, human. The note with it: 100 μM compound, 5 Joules/cm^2, 5 days storage. As for the experimental part: (§6) To measure the effects of the present compounds and methods of decontamination on platelet function using these four indicators, four samples were prepared for each compound tested, two control samples and two containing compound. Three units of human platelets were obtained from the Sacramento Blood Center, Sacramento, Calif. These were each transferred under sterile conditions to 50 ml centrifuge tubes, then aliquots of each unit were transferred into a second set of 50 ml sterile centrifuge tubes. To each centrifuge tube containing platelet concentrate (PC), an aliquot of compound stock was added to reach a final concentration of 100 μM of compound. […] The samples were pipetted gently up and down to mix. Then aliquots (either 3 ml or 8 ml) of each sample was transferred to two sterile Teflon™ Medi-bags™ (American Fluoroseal Co., Silver Springs, Md.) (presently owned by The West Company, Lionville, Pa.). Samples were treated in one of two different sized bags, having either 3 ml or 8 ml capacity. […] For each compound tested, two control samples without compound were prepared by again removing aliquots of platelet concentrate (17 ml if using an 8 ml bag, […] if using a 3 ml bag) from the same one of the first set of 50 ml centrifuge tubes from which the compound sample was drawn, and dividing into Medibags, as before. One of each pair of Medibags containing a compound, and one of each pair of control Medibags, were illuminated for 5 Joules/cm^2 on the device described in Example 1, above. Then all experimental and control Medibags were placed on a platelet shaker for storage for 5 days. The same experiments were repeated several times to obtain more statistically meaningful data, as represented by “n”, the number of data points represented, in the graphs of FIGS. 21-24, discussed below.
On the technique in general: Flow cytometry measures light scatter and fluorescence of single cells or particles in a stream.

In data set [4] the test system is Chinese hamster ovary (CHO) cells. Briefly: In vitro genotoxicity screen in CHO cells. Format: cell-based. The note with it: approximately 3 hours exposure in the dark, dilutions 1-1000 μg/ml. The text has this: The positive control was methylmethane sulfonate.
Coverslips were mounted with Permount.

The test system of the next data set is HIV-1. As to conditions: concentrations of 64 μM of compound or higher.
Data set [5] concerns Salmonella typhimurium TA1537. The experiment in a line: Ames assay (dark mutagenicity), strain TA1537. As to conditions: TA1537 in the presence of S9.
Description: as §1, §2, §3, §4, §5
(The Ames test detects mutagens through reverse mutation in bacteria.)

The subject of another data set is human platelets. The note with it: 100 μM compound. As to the method:
as §6
A Sysmex cell counter was used to measure platelet count in the platelet samples. Samples were diluted 1:3 in blood bank saline.

Where two headings read alike, the source gives them in different places.

Description for HIV-1: Pathogen inactivation efficiency of several compounds of the present invention was evaluated by examining the ability of the compounds to inactivate cell-free virus (HIV). Inactivation of cell-free HIV was performed as follows.
As in the R17 assay, small aliquots of the compounds listed in TABLES 10 and 11, below, at the concentrations listed in the table, were added to stock HIV-1 to a total of 0.5 mL. The stock HIV (10^5-10^7 plaque forming units/mL) was in DMEM/15% FBS. […] Controls included HIV-1 stock only, HIV-1 plus UVA only, and HIV-1 plus the highest concentration of each psoralen tested, with no UVA. Post irradiation, all samples were stores frozen at −70° C. until assayed for infectivity by a microtiter plaque assay. Aliquots for measurement of residual HIV infectivity in the samples treated with a compound of the present invention were withdrawn and cultured.
Residual HIV infectivity was assayed using an MT-2 infectivity assay. […] After 24 to 48 hours, the red fluorescence-stained microplaques were visualized by placing the plates on an 8,000 μW/cm^2 304 nm UV light box (Fotodyne, Inc., New Berlin, Wis.). The plaques were counted at a magnification of ×20 to ×25 through a stereomicroscope.

In the case of `Cc1oc2c(C)c3oc(=O)cc(C)c3cc2c1COCCN` [Compound 2, 4′-(4-amino-2-oxa)butyl-4,5′,8-trimethylpsoralen], the revertants per plate in data set [1] (TA98 +S9, 10 μg/plate) worked out at 24; in data set [1] (TA98 +S9, 50 μg/plate), 35; in data set [1] (TA98 +S9, 100 μg/plate), 53; in data set [1] (TA98 +S9, 250 μg/plate) it was 69; in data set [1] (TA98 +S9, 500 μg/plate), 63; in data set [1] (TA98 −S9, 10 μg/plate), 28. Moreover, the revertants per plate in data set [1] (TA98 −S9, 50 μg/plate) is 52; in data set [1] (TA98 −S9, 100 μg/plate) it was 39; in data set [1] (TA98 −S9, 250 μg/plate), 29; in data set [1] (TA98 −S9, 500 μg/plate) it was 6; in data set [2] (TA100 +S9, 5 μg/plate), −18; in data set [2] (TA100 +S9, 10 μg/plate) it was 1. Besides, the revertants per plate in data set [2] (TA100 +S9, 50 μg/plate) came out at 115; in data set [2] (TA100 +S9, 100 μg/plate), 96; in data set [2] (TA100 −S9, 5 μg/plate), 103; in data set [2] (TA100 −S9, 10 μg/plate), 46; in data set [2] (TA100 −S9, 50 μg/plate), 182; in data set [2] (TA100 −S9, 100 μg/plate) it was 121. For the same compound, in data set [3], the “GMP-140 expression: sample treated with light and psoralen (PCD) versus day 5 untreated control (D5)” value is on record as “little or no difference”. For the same compound, the “genotoxic (toxic) concentration” value in data set [4] is 100 µg/mL. In addition, in the data set with HIV-1, the “HIV inactivation activity compared with AMT” value was “significantly more active than AMT”.
For the compound `Cc1oc2c(C)c3oc(=O)cc(C)c3cc2c1CNCCCCN` [Compound 6, 4′-(6-amino-2-aza)hexyl-4,5′,8-trimethylpsoralen], the revertants per plate in data set [1] (TA98 −S9, 10 μg/plate) is given as 12; in data set [1] (TA98 −S9, 50 μg/plate), 12; in data set [1] (TA98 −S9, 100 μg/plate) it was 22; in data set [1] (TA98 −S9, 250 μg/plate), 12; in data set [1] (TA98 −S9, 500 μg/plate), 9; in data set [2] (TA100 +S9, 5 μg/plate) it was 12. Further, the revertants per plate was −5 in data set [2] (TA100 +S9, 10 μg/plate); 24 in data set [2] (TA100 +S9, 50 μg/plate); −2 in data set [2] (TA100 +S9, 100 μg/plate); −38 in data set [2] (TA100 +S9, 250 μg/plate). In data set [5], the “concentration showing a response” value stood at 50 μg/plate. Further, the “GMP-140 expression: sample treated with light and psoralen (PCD) versus day 5 untreated control (D5)” value in data set [3] is on record as “little or no difference”. Besides, in the data set with human platelets (5 Joules/cm^2), the “platelet count, Day 5 treated sample versus Day 5 control” value is “counts equivalent to the 5 day control”. For the same compound, in the data set with human platelets (5 Joules/cm^2, 5 days storage), the “platelet count compared with samples treated with light alone” value is on record as “higher platelet count than samples treated with light alone”. The “genotoxic (toxic) concentration” value in data set [4] is 100 µg/mL.

These data come from patent publication US6469052B2, “Compounds for the photodecontamination of pathogens in blood” (Cerus Corporation, priority 1993, dated 2002).
